Where two headings read alike, the source gives them in different places.
What was measured:
dopamine D2S receptor = dopamine D2S receptor (Homo sapiens (Human), UniProt P14416); assay: Dopamine D2S receptor binding assay (Eurofins Cerep item 1322); details: [3H]7-OH-DPAT, read-out: % inhibition of control specific binding (1 μM)
Protocol: Assays for determining dopamine D2S receptor binding values were performed according to Eurofins Cerep protocol item 1322 and the results are represented in Table C below. The parameters used for the assay are described below. […] Common antipsychotics, in contrast, block dopamine receptors (Keefe, et al., J Clin Psychiatry. 2018; 79 (3): 17m11753).

α1a (h) [1] = molecular target: T1, α1a (h) (Homo sapiens (Human), UniProt P35348); assay: α1A adrenergic antagonist effect assay; type: cell-based; details: for inhibition at 1 µM: α1A(h) antagonist effect, read-out: % inhibition of control values (1 μM)
T1 sequence (P35348 whole entry): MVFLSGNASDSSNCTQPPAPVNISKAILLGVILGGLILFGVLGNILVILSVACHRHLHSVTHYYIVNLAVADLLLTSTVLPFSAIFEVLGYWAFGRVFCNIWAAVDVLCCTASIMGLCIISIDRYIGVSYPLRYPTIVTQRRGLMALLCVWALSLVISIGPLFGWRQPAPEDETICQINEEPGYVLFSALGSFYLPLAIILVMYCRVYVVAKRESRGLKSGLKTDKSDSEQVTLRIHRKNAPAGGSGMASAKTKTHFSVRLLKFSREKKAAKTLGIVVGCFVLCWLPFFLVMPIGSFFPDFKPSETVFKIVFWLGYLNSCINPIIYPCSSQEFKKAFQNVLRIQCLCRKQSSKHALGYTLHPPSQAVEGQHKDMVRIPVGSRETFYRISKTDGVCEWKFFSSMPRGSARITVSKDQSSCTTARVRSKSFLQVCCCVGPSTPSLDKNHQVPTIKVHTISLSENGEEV
Protocol: Assays for determining the antagonist effect on α1A (h) were performed according to the procedure described in Example 21, and the results are represented in Table E below. […] No antagonist effect is observed for the other compounds.

α1a (h) [2] = molecular target: T1, α1a (h); assay: α1A adrenergic agonist effect assay; type: cell-based; details: α1A(h) agonist effect, 1 μM; read-out: % stimulation relative to control (1 μM)
Protocol: Assays for determining the agonist effect on α1A (h) were performed according to the procedure described in Example 21, and the results are represented in Table D below.

hERG = hERG (Homo sapiens (Human), UniProt Q12809); assay: hERG inhibition assay
hERG, sequence (Q12809 whole entry): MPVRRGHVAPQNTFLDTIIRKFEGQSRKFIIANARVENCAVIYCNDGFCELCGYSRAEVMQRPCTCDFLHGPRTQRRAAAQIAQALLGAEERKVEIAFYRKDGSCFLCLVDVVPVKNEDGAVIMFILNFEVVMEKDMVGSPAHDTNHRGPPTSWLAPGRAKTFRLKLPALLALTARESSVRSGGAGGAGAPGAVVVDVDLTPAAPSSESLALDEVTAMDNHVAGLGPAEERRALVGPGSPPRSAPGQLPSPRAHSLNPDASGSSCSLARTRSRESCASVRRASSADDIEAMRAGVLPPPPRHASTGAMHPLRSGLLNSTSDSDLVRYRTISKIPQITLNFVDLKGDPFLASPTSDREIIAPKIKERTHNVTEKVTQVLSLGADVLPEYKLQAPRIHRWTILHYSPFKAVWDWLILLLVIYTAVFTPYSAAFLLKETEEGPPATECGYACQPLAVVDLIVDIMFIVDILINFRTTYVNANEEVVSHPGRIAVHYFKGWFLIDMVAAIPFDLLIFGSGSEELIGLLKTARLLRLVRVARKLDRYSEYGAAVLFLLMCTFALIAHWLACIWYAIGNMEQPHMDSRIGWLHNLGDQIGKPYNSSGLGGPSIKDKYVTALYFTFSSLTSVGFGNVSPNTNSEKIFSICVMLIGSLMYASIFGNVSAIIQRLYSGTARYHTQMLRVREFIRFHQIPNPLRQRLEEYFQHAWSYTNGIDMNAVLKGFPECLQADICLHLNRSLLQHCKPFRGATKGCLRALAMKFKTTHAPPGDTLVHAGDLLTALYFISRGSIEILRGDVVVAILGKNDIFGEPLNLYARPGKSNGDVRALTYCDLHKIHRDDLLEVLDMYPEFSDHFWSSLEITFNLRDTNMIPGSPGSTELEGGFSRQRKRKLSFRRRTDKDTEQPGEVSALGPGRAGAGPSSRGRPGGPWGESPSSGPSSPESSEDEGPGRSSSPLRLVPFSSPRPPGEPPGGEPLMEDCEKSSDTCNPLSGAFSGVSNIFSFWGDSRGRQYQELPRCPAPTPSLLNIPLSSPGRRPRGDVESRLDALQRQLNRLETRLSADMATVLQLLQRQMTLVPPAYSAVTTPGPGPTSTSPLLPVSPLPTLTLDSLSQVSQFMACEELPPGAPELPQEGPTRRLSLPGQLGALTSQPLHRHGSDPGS

5HT2A = 5HT2A (Homo sapiens (Human), UniProt P28223); assay: 5HT2A agonist effect assay; type: cell-based; details: for activation at 0.1 µM: 100 nM, read-out: % stimulation relative to control (100 nM); for activation at 1 µM: read-out: % stimulation relative to control (1 μM)
Protocol: Assays for determining the agonist effect on 5HT2A were performed according to the procedure described in Example 21, and the results are represented in Table F below. The compounds in Table F have no agonist effect on 5HT2A at 1 μM and 100 nM.

Sigma 2 (h) = Sigma 2 (h) (Homo sapiens (Human), UniProt Q5BJF2); assay: Sigma-2 binding assay
Sigma 2 (h), sequence (Q5BJF2 whole entry): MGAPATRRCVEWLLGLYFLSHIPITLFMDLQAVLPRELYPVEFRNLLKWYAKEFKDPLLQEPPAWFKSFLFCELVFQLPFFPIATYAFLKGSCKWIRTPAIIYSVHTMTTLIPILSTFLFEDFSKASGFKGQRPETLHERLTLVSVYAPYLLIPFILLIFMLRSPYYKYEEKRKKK
Protocol: (§1) Assays for determining Sigma-1 and Sigma-2 binding values were performed according to Ganapathy, M. E. et al. (1999), J. Pharmacol. Exp. Ther., 289:251-260.

sigma 1 (h) = sigma 1 (h) (Homo sapiens (Human), UniProt Q99720); assay: Sigma-1 binding assay; details: [3H](+)pentazocine, Jurkat cells; read-out: Sigma-1 Ki
sigma 1 (h), sequence (Q99720 whole entry): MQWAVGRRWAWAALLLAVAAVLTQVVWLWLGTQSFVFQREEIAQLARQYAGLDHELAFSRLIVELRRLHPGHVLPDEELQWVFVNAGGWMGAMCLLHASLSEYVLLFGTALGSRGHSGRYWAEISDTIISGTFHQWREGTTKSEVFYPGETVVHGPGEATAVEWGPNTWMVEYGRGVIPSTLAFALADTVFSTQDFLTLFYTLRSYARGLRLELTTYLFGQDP
Protocol: as §1

[3] = [3H]DTG (+1 μM (+)pentazocine), Jurkat cells, read-out: Sigma-2 Ki

dopamine D2S receptor, sequence (P14416 other isoform, or with tags, fused parts or gaps): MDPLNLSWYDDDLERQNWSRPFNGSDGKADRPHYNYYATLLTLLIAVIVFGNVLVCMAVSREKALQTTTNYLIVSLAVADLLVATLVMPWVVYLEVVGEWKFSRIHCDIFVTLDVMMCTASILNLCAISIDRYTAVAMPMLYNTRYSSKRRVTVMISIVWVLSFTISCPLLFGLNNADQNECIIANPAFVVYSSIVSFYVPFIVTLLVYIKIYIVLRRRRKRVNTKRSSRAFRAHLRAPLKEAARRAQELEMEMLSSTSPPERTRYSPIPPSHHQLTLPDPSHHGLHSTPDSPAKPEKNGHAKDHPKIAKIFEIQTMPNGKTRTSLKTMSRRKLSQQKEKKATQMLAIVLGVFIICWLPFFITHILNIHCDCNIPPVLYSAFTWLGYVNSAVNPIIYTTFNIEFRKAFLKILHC

Compound	inhibition at 1 µM (dopamine D2S receptor)	inhibition at 1 µM (α1a (h) [1])	activation at 1 µM (α1a (h) [2])	IC50 (hERG)	activation at 0.1 µM (5HT2A)	activation at 1 µM (5HT2A)	Ki (Sigma 2 (h))	Ki (sigma 1 (h))	Ki (Sigma 2 (h); [3])	antagonist effect on α1A (h) (in words) (α1a (h) [1])
CC1(C)CCN(C2CCCCC2)Cc2cc(-c3ccc(C(F)(F)F)cc3)ccc21 [Compound 32, 2-cyclohexyl-5,5-dimethyl-8-(4-(trifluoromethyl)phenyl)-2,3,4,5-tetrahydro-1H-benzo[c]azepine]	8%	25%	0%	> 3000 nM	1%	2%	50 to 100 nM	–	–	–
CC1(C)CN(S(=O)(=O)c2cccc(Cl)c2)Cc2cc(N3CCN(C4CCCC4)CC3)ccc21 [Compound 33, 2-((3-chlorophenyl)sulfonyl)-7-(4-cyclopentylpiperazin-1-yl)-4,4-dimethyl-1,2,3,4-tetrahydroisoquinoline]	13%	9%	-1%	> 3000 nM	0%	-1%	–	0.1 to 5 nM	0.1 to 5 nM	–
CC1(C)CN(C(=O)c2cc(F)cc(Cl)c2)Cc2cc(N3CCN(C4CCCC4)CC3)ccc21 [Compound 38, (3-chloro-5-fluorophenyl)(7-(4-cyclopentylpiperazin-1-yl)-4,4-dimethyl-3,4-dihydroisoquinolin-2(1H)-yl)methanone]	1%	51%	0%	2040 nM	0%	-1%	–	0.1 to 5 nM	0.1 to 5 nM	small antagonist effect
CC1(C)CN(C(=O)OC2CCCCC2)Cc2cc(N3CCN(C4CCCC4)CC3)ccc21 [Compound 43, cyclohexyl 7-(4-cyclopentylpiperazin-1-yl)-4,4-dimethyl-3,4-dihydroisoquinoline-2(1H)-carboxylate]	11%	15%	0%	2770 nM	-4%	0%	–	0.1 to 5 nM	0.1 to 5 nM	–
CC(C)OC(=O)N1Cc2cc(N3CCN(C4CCCC4)CC3)ccc2C(C)(C)C1 [Compound 45, isopropyl 7-(4-cyclopentylpiperazin-1-yl)-4,4-dimethyl-3,4-dihydroisoquinoline-2(1H)-carboxylate]	-5%	19%	0%	> 3000 nM	-4%	-1%	–	0.1 to 5 nM	5 to 50 nM	–
CC1(C)CCN(C(=O)C2CCCC2)Cc2cc(N3CCN(C4CCCC4)CC3)ccc21 [Compound 73, cyclopentyl(8-(4-cyclopentylpiperazin-1-yl)-5,5-dimethyl-1,3,4,5-tetrahydro-2H-benzo[c]azepin-2-yl)methanone]	6%	31%	0%	2600 nM	2%	0%	–	0.1 to 5 nM	5 to 50 nM	–
CC1(C)CCN(C(=O)c2cccc3c2OCO3)Cc2cc(N3CCC(N4CCOCC4)CC3)ccc21 [Compound 84, benzo[d][1,3]dioxol-4-yl(5,5-dimethyl-8-(4-morpholinopiperidin-1-yl)-1,3,4,5-tetrahydro-2H-benzo[c]azepin-2-yl)methanone]	-1%	19%	0%	> 3000 nM	-2%	-2%	–	5 to 50 nM	–	–
CC1(C)CCN(C(=O)C2CCCC2)Cc2cc(N3CCC(N4CCOCC4)CC3)ccc21 [Compound 85, cyclopentyl(5,5-dimethyl-8-(4-morpholinopiperidin-1-yl)-1,3,4,5-tetrahydro-2H-benzo[c]azepin-2-yl)methanone]	-3%	10%	1%	> 3000 nM	-2%	0%	–	5 to 50 nM	–	–
CC1(C)CCN(C(=O)C2CCCCC2)Cc2cc(N3CCC(N4CCOCC4)CC3)ccc21 [Compound 86, cyclohexyl(5,5-dimethyl-8-(4-morpholinopiperidin-1-yl)-1,3,4,5-tetrahydro-2H-benzo[c]azepin-2-yl)methanone]	2%	-3%	0%	> 3000 nM	2%	1%	–	0.1 to 5 nM	–	–
Cc1cc(-c2ccc3c(c2)CN(CCC(=O)N2CCc4ccccc4C2)CCC3(C)C)cc(C)n1 [Compound 111, 1-(3,4-dihydroisoquinolin-2(1H)-yl)-3-(8-(2,6-dimethylpyridin-4-yl)-5,5-dimethyl-1,3,4,5-tetrahydro-2H-benzo[c]azepin-2-yl)propan-1-one]	37%	57%	0%	2220 nM	-1%	-2%	–	–	50 to 100 nM	small antagonist effect
Cc1cc(-c2ccc3c(c2)CN(CCC(=O)N2CCC(C)CC2)CCC3(C)C)cc(C)n1 [Compound 131, 3-(8-(2,6-dimethylpyridin-4-yl)-5,5-dimethyl-1,3,4,5-tetrahydro-2H-benzo[c]azepin-2-yl)-1-(4-methylpiperidin-1-yl)propan-1-one]	21%	31%	-1%	> 3000 nM	1%	-1%	50 to 100 nM	–	–	–

Reference: patent US20240376068A1, “SIGMA LIGAND COMPOUNDS AND USES THEREOF” (Minerva Neurosciences, Inc., priority 2020, published 2024)
